The source of these data is PubChem BioAssay (NCI).

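Cultured in 96-well plates, cells were exposed to test compound for 48 hours across five concentrations. The concentration for full growth arrest is given as TGI.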

Common to all, as to assay: DTP human tumour cell line panel, 48 h
For assay [1], the system named is A549 NSCLC.
Assay [2] deals with SNB-75 CNS.
Assay [3] deals with UO-31 renal.
Assay [4] has as its system MCF7 breast.

For orientation: TGI means the concentration at which net growth stops.

In the case of `O=Cc1[nH]c(=O)[nH]c(=O)c1C(=O)O`, the TGI in assay [1], in assay [2], in assay [3] and in assay [4] was over 100 µM throughout.

With `CN1C2CCC1CC(=CCOC(c1ccc(F)cc1)c1ccc(F)cc1)C2`, the concentration for total growth inhibition (TGI) turned out to be 32.4 µM in assay [1], 27.1 µM in assay [2], 21.8 µM in assay [3] and 34.6 µM in assay [4].

For `COc1ccc(S(=O)(=O)c2nnc(S(=O)(=O)Cc3ccccc3)s2)cc1`, the concentration for total growth inhibition (TGI) was found to be 49.3 µM in assay [1], 31.8 µM in assay [2], 43.4 µM in assay [3] and 60.6 µM in assay [4].

For the compound `Oc1[nH]c2ccccc2c1N=NC(=S)Nc1cccc(Cl)c1`, the TGI in assay [1] is 35.6 µM; in assay [3], over 100 µM; in assay [4], over 100 µM.

Regarding `N#Cc1c(-c2ccc(Cl)cc2Cl)nc2[nH][nH]c(=S)n2c1=O`, the TGI in assay [1], in assay [3] and in assay [4] was over 100 µM throughout.

In the case of `O=[N+]([O-])c1ccc2c(c1)C1=C(CO2)Cc2ccccc2O1`, the TGI in assay [1] was over 100 µM; in assay [2], over 100 µM; in assay [3], 28.1 µM.

As to `Cc1cc(S(=O)(=O)Nc2n[nH]c(N)n2)c(SCC(=O)O)cc1Cl`, the TGI in assay [1], in assay [2], in assay [3] and in assay [4] was over 10 µM throughout.

`CCOC(=O)C12OC(CCC1=O)C(C(=O)OC)=C2C(=O)OC` (centres undefined): the TGI in assay [1], in assay [2], in assay [3] and in assay [4] was over 10 µM throughout.

For the compound `CC(CO)(CO)N1C(=O)C2C3C=CC(C3)C2C1=O` (centres undefined), the TGI in assay [1], in assay [2], in assay [3] and in assay [4] was over 100 µM throughout.

Consider `CCCCCCOC(=O)/C=C/[C@]1(CO)C/C(=C/CC(C(C)C)C(C)C)C(=O)O1`, for which the TGI came out at 18.4 µM in assay [1], 27.7 µM in assay [2], 17.8 µM in assay [3] and 30.4 µM in assay [4].

Consider `O=C(Oc1ccccn1)c1cc2cc(CCl)ccc2oc1=O`, for which the TGI in assay [1] was over 100 µM; in assay [2], 62.1 µM; in assay [3], over 100 µM; in assay [4], over 100 µM.

Regarding `O=C(Nc1nc(C23CC4CC(CC(C4)C2)C3)cs1)c1cc2ccc(O)cc2oc1=O`, the TGI in assay [1] came out at 38.3 µM; in assay [3], 31.2 µM; in assay [4] it was 61.3 µM.

Consider `COC(CNC(=O)C(C)NC(=O)/C=C/c1ccccc1)OC` (centres undefined), for which the TGI in assay [1], in assay [2], in assay [3] and in assay [4] was over 100 µM each time.

Consider `NC(=O)C(C(N)=O)=C(O)C(=O)/C=C(\O)c1ccccc1`, for which the TGI in assay [1], in assay [2], in assay [3] and in assay [4] was over 100 µM in each case.

On to `Cn1ccc(C(=O)NCCN(CCNC(=O)c2ccn(C)c(=O)c2O)CCNC(=O)c2cccc(=O)n2O)c(O)c1=O`, for which the TGI in assay [1], in assay [2], in assay [3] and in assay [4] was over 100 µM in each case.

As for `OC1C#CCSCC#C/C=C\1` (centres undefined), the TGI in assay [2], in assay [3] and in assay [4] was over 100 µM in each case.

`CCOC1OC(=O)c2cc3ccc4c(c3c(-c3ccc5c(c3)OCO5)c21)OCO4` (centres undefined): the TGI in assay [1] was over 100 µM; in assay [2], 15.5 µM; in assay [3] it was over 100 µM; in assay [4] it was over 100 µM.

`Cc1nn(-c2ccccc2)c2c1C(c1ccc(Cl)cc1)NC(=S)N2` (centres undefined): the TGI in assay [1] is 69.5 µM; in assay [2], over 100 µM; in assay [3] it was 28.8 µM; in assay [4], over 100 µM.

For the compound `COc1ccc(P2(=S)OC(C)(C)C(C)(C)O2)cc1`, the TGI in assay [1], in assay [2], in assay [3] and in assay [4] was over 100 µM throughout.

As for `CCCCCCc1cc2cc(C(=O)Nc3ccccc3)c(=N)oc2cc1O`, the TGI in assay [1] is over 37.5 µM; in assay [2], over 100 µM; in assay [3] it was 12.7 µM; in assay [4], over 100 µM.

Take `COc1cc2c(C)cc(O)cc2c2cc(O)c(C)cc12`: the TGI in assay [1] worked out at 23.8 µM; in assay [3], 19.1 µM; in assay [4], 20.5 µM.

Turning to `Nc1nc(SC/C=C/c2ccccc2)c2[nH]cnc2n1`, the TGI in assay [1], in assay [2], in assay [3] and in assay [4] was over 100 µM throughout.

As for `COC(=O)c1cc2ccc(N)nc2[nH]c1=O`, the TGI in assay [1], in assay [2], in assay [3] and in assay [4] was over 100 µM in each case.

Take `CCC(C)OC(=O)/C(Br)=C1/OC(=O)c2ccccc2-c2ccccc21` (centres undefined): the TGI in assay [1] was over 100 µM; in assay [2], over 100 µM; in assay [3], 73 µM; in assay [4], over 100 µM.

With `CC(O)C1(CNc2cc(Cl)nc(N)n2)CCC1` (centres undefined), the TGI in assay [1], in assay [3] and in assay [4] was over 100 µM in each case.

As for `Nc1ncnc2c1ncn2[C@@H]1C[C@@H]1CO`, the TGI in assay [1], in assay [3] and in assay [4] was over 100 µM in each case.

As for `O=[N+]([O-])/C(C(Cl)=C(Cl)Cl)=C(/Cl)Sc1ccccc1`, the TGI in assay [1] came to 13.5 µM; in assay [2], 28.8 µM; in assay [3], 3.02 µM; in assay [4] it was 2.99 µM.

For `C/C=C(/C)C(=O)O[C@@H]1CCN2CC[C@H](COC(=O)/C(=C/C)CO)C12` (some centres undefined), the TGI in assay [1], in assay [2], in assay [3] and in assay [4] was over 100 µM in each case.
